Experimental data published in patent US7098186B2, “Depsipeptide compound” (Astellas Pharma INC, priority 2002, dated 2006).

Legend:
Type in all cases: cell-based
[1] = test system: Human colon cancer WiDr cells; experiment: Inhibition of cell proliferation against human cancer cells (Alamar Blue), WiDr; details: 72 hours culture
Procedure: (§1) Human colon cancer WiDr cells or human leukemia K562 cells were inoculated into a 96-well test plate at a density of 5×10^3 cell/well and cultured at 37° C. in a […] incubator. Eighteen hours after the inoculation, the solvent (DMSO) diluted with the medium and various concentrations of the compound Q or R were added, and followed by further culture at 37° C. in a […] incubator for 72 hours. After the culturing, the proliferation of cells was measured with Alamar Blue (BIOSOURCE Co.). The measurement values for the conditions in which 0.1% DMSO and cells had been added, and 0.1% DMSO had been added and cells had not been added were assigned to be 0% inhibition and 100% inhibition, respectively, and the proliferation inhibition rate for each concentration of the compounds was obtained, then the concentration of inhibiting proliferation by 50% (IC50 value) was calculated by logistic regression.

[2] = test system: human leukemia K562 cells; experiment: Inhibition of cell proliferation against human cancer cells (Alamar Blue), K562; details: 72 hours culture
Procedure: as §1

[3] = test system: acetylated histone H3 in K562 cells; experiment: Effect on inducing histone acetylation against human cancer cells (Western blot, anti-acetylated histone H3); details: 0.3 to 30 nM, 24 hours, in comparison with the sample treated with solvent
Procedure: After inoculating K562 cells into a 35 mm dish at a density of 1.5×10^6 cell/dish, the solvent (DMSO) and various concentrations (0.3 to 30 nM) of the compound Q or R were added and cultured at 37° C. in a […] incubator for 24 hours. Extraction of the histone protein was performed by the following method. To the cell precipitate collected by centrifugation, TEN buffer (10 mM Tris HCl (pH 8.0), 1 mM EDTA, 1% NP-40, 1 tablet/10 mL Complete mini (Roche Co.)) was added, stood on the ice for 10 minutes, and the supernatant was collected by centrifugation. The supernatant was mixed well with an equal amount of 0.4 M sulfuric acid, and stood on ice for 1 hour. The supernatant portion was collected by centrifugation, mixed with 5 times amount of acetone and stood at −20° C. for 12 hours or more. The precipitate was collected by centrifugation, washed once with acetone, and then the precipitate was dried. The precipitate was dissolved in distilled water, which was made to be histone protein, the protein concentration was determined by the Bradford method. […] For the primary antibody, an anti-acetylated histone H3 antibody (UPSTATE biotechnology Co.), for the secondary antibody, an HRP labeled anti-rabbit antibody (Amersham Pharmacia Biotech Co.) were used, and luminescence was detected by ECL (Amersham Pharmacia Biotech Co.).

IC50 [1] [nM] | IC50 [2] [nM] | Structure (SMILES) | bands of acetylated histone H3 (induction of histone acetylation) [3]
3 | 1.4 | CC1NC(=O)CC2/C=C/CCSSSCC(NC1=O)C(=O)NC(C(C)C)C(O)CC(=O)O2 (stereo not drawn) [compound Q] | significant and dose-dependent bands of acetylated histone H3 were detected
0.9 | 0.6 | CC1NC(=O)CC2/C=C/CCSSCC(NC1=O)C(=O)NC(C(C)C)C(O)CC(=O)O2 (stereo not drawn) [compound R] | significant and dose-dependent bands of acetylated histone H3 were detected
